Oligonucleotides are written 5' to 3', each unit as a sugar letter and its base; * is a phosphorothioate linkage, no mark a phosphodiester; rarer units and linkages stand in square brackets, end groups in braces. Plain capitals give the bases only. {Fethoc} = N-terminal Fethoc cap; [C(1O2)] = modified PNA monomer acting as cytosine, C(pOq) type, 1O2; [C(1O5)] = modified PNA monomer acting as cytosine, C(pOq) type, 1O5; [A(5)] = modified PNA monomer acting as adenine, A(p) type, p=5; [A(6)] = modified PNA monomer acting as adenine, A(p) type, p=6; [G(5)] = modified PNA monomer acting as guanine, G(p) type, p=5; [G(6)] = modified PNA monomer acting as guanine, G(p) type, p=6; [PNA-N] = PNA monomer with natural nucleobase (N: the base); {NH2} = C-terminal amide; [G(G)] = code of the source, not defined here; [Lys] = lysine residue in the chain; [Val] = valine residue in the chain; {Piv} = N-terminal pivaloyl group

The subject of the data set is 10-mer complementary DNA. Nature of the data set: Tm between PNA derivatives and 10-mer complementary DNA (N- or C-terminal). It counts as binding. The note with it: uncorrected. The method, then: A mixed solution of 4 μM 10-mer PNA oligomer and 4 μM complementary 10-mer DNA or RNA in 4 mL aqueous buffer (pH 7.16, 10 mM sodium phosphate, 100 mM NaCl) in 15 mL polypropylene falcon tube was incubated at 90° C. for a minute and slowly cooled down to ambient temperature. Then the solution was transferred into a 4 mL quartz UV cuvette, and subjected to Tm measurement at 260 nm on a UV/Visible spectrophotometer as described in the prior art [PCT/KR2009/001256] or with minor modifications. The DNA and RNA for Tm measurement were purchased from Bioneer (www.bioneer.com, Dajeon, Republic of Korea) and used without further purification.
PNA derivatives of Formula I were evaluated for their binding affinity for 10-mer DNAs complementarily targeting either the N-terminal or C-terminal. The binding affinity was assessed by the Tm value for the duplex between PNA and 10-mer complementary DNA. The duplex between PNA derivatives and DNAs of full complementarity usually show Tm values too high to be reliably determined in aqueous buffer solution. The aqueous buffer solution tends to boil off during Tm measurement.
Consider “Fethoc-A(5)GT-G(5)TA(5)-CC(1O2)T-A(5)AA(5)-C-NH2 (AGTGTACCTAAAC; splice-switching; all peptide nucleic acid (PNA), [A(5)] at 1, 6, 10, 12, [G(5)] at 4, [C(1O2)] at 8, 5' {Fethoc}, 3' {NH2}; peptide nucleic acid written N to C) [SCN-ASO 28]”, for which the “Tm Value, 10-mer DNA against C-Terminal” value came out at 70.0 °C and the “Tm Value, 10-mer DNA against N-Terminal” value amounted to 78.1 °C.
Consider “Fethoc-CA(6)T-CA(6)T-TTG(5)-TTA(5)-CCC(1O2)-TG(5)-NH2 (CATCATTTGTTACCCTG; all peptide nucleic acid (PNA), [A(6)] at 2, 5, [G(5)] at 9, 17, [A(5)] at 12, [C(1O2)] at 15, 5' {Fethoc}, 3' {NH2}; peptide nucleic acid written N to C) [SNAP-ASO 10]”, for which the “Tm Value, 10-mer DNA against C-Terminal” value came out at 68.0 °C and the “Tm Value, 10-mer DNA against N-Terminal” value came to 61.0 °C.
On the same counts, the results for “Piv-Lys-AA(6)C-TTA(6)-TCC(1O2)-TA(6)C-TTA(5)-Val-NH2 (antisense {Piv}[Lys][PNA-A][PNA-A(6)][PNA-C][PNA-T][PNA-T][PNA-A(6)][PNA-T][PNA-C][PNA-C(1O2)][PNA-T][PNA-A(6)][PNA-C][PNA-T][PNA-T][PNA-A(5)][Val]-{NH2}; peptide nucleic acid backbone) [HIF-ASO 10]” are 60.0 °C and 61.0 °C.
“Fethoc-TG(6)T-TA(5)A-A(5)TA(5)-CGC(1O2)-AA(5)A-A(5)A-NH2 (TGTTAAATACGCAAAAA; all peptide nucleic acid (PNA), [G(6)] at 2, [A(5)] at 5, 7, 9, 14, 16, [C(1O2)] at 12, 5' {Fethoc}, 3' {NH2}; peptide nucleic acid written N to C) [SCN-ASO 4]”: the “Tm Value, 10-mer DNA against C-Terminal” value came out at 71.6 °C and the “Tm Value, 10-mer DNA against N-Terminal” value amounted to 63.5 °C.
Consider “Fethoc-G(5)AA(6)-CTT-A(6)TC-CTA(6)-C(1O2)T-NH2 (GAACTTATCCTACT; splice-switching; all peptide nucleic acid (PNA), [G(5)] at 1, [A(6)] at 3, 7, 12, [C(1O2)] at 13, 5' {Fethoc}, 3' {NH2}; peptide nucleic acid backbone) [HIF-ASO 5]”, for which the “Tm Value, 10-mer DNA against C-Terminal” value was 58.0 °C and the “Tm Value, 10-mer DNA against N-Terminal” value stood at 62.0 °C.
In the case of “Fethoc-AA(5)G-TG(6)T-A(5)CC(1O2)-TAA(5)-A-NH2 (AAGTGTACCTAAA; splice-switching; all peptide nucleic acid (PNA), [A(5)] at 2, 7, 12, [G(6)] at 5, [C(1O2)] at 9, 5' {Fethoc}, 3' {NH2}; peptide nucleic acid written N to C) [SCN-ASO 22]”, the “Tm Value, 10-mer DNA against C-Terminal” value amounted to 65.0 °C and the “Tm Value, 10-mer DNA against N-Terminal” value came out at 74.0 °C.
In the case of “Piv-A(6)TC-CTA(6)-C(1O2)TT-A(5)AC-NH2 (ATCCTACTTAAC; splice-switching; all peptide nucleic acid (PNA), [A(6)] at 1, 6, [C(1O2)] at 7, [A(5)] at 10, 5' {Piv}, 3' {NH2}; peptide nucleic acid backbone) [HIF-ASO 9]”, the “Tm Value, 10-mer DNA against C-Terminal” value worked out at 59.0 °C and the “Tm Value, 10-mer DNA against N-Terminal” value amounted to 60.9 °C.
Regarding “Fethoc-CA(6)T-TTG(5)-TTA(5)-CCC(1O2)-TG(5)-NH2 (antisense CATTTGTTACCCTG; all peptide nucleic acid (PNA), [A(6)] at 2, [G(5)] at 6, 14, [A(5)] at 9, [C(1O2)] at 12, 5' {Fethoc}, 3' {NH2}; peptide nucleic acid written N to C) [SNAP-ASO 8]”, the “Tm Value, 10-mer DNA against C-Terminal” value came out at 68.0 °C and the “Tm Value, 10-mer DNA against N-Terminal” value stood at 58.0 °C.
With “Fethoc-A(5)AG-TG(6)T-A(5)CC(1O2)-TAA-A(5)-NH2 (AAGTGTACCTAAA; splice-switching; all peptide nucleic acid (PNA), [A(5)] at 1, 7, 13, [G(6)] at 5, [C(1O2)] at 9, 5' {Fethoc}, 3' {NH2}; peptide nucleic acid written N to C) [SCN-ASO 24]”, the “Tm Value, 10-mer DNA against C-Terminal” value was 66.0 °C and the “Tm Value, 10-mer DNA against N-Terminal” value was 77.0 °C.
On the same counts, the results for “Fethoc-C(1O5)TT-A(6)TC-CTA(6)-C(1O2)TT-AA(6)C-NH2 (CTTATCCTACTTAAC; all peptide nucleic acid (PNA), [C(1O5)] at 1, [A(6)] at 4, 9, 14, [C(1O2)] at 10, 5' {Fethoc}, 3' {NH2}; peptide nucleic acid backbone) [HIF-ASO 7]” are 61.0 °C and 69.0 °C.
Regarding “Fethoc-CTC(1O2)-A(6)TC-CTA(6)-C(1O2)TT-AA(6)C-NH2 (CTCATCCTACTTAAC; all peptide nucleic acid (PNA), [C(1O2)] at 3, 10, [A(6)] at 4, 9, 14, 5' {Fethoc}, 3' {NH2}; peptide nucleic acid backbone) [HIF-ASO 8]”, the “Tm Value, 10-mer DNA against C-Terminal” value was found to be 61.0 °C and the “Tm Value, 10-mer DNA against N-Terminal” value was 73.0 °C.
With “Fethoc-CTT-A(5)CG(6)-C(1O2)AA(5)-AA(5)A-C(1O2)AA(5)-NH2 (CTTACGCAAAAACAA; all peptide nucleic acid (PNA), [A(5)] at 4, 9, 11, 15, [G(6)] at 6, [C(1O2)] at 7, 13, 5' {Fethoc}, 3' {NH2}; peptide nucleic acid written N to C) [SCN-ASO 12]”, the “Tm Value, 10-mer DNA against C-Terminal” value was 77.0 °C and the “Tm Value, 10-mer DNA against N-Terminal” value amounted to 76.0 °C.
Consider “Fethoc-AA(5)G-TG(5)T-A(5)CC(1O2)-TA(5)A-A(5)-NH2 (AAGTGTACCTAAA; splice-switching; all peptide nucleic acid (PNA), [A(5)] at 2, 7, 11, 13, [G(5)] at 5, [C(1O2)] at 9, 5' {Fethoc}, 3' {NH2}; peptide nucleic acid written N to C) [SCN-ASO 26]”, for which the “Tm Value, 10-mer DNA against C-Terminal” value is 72.0 °C and the “Tm Value, 10-mer DNA against N-Terminal” value came to 75.0 °C.
On the same counts, the results for “Fethoc-TG(5)T-TA(6)C-C(1O2)CT-GG(5)G-A(5)-NH2 (TGTTACCCTGGGA; all peptide nucleic acid (PNA), [G(5)] at 2, 11, [A(6)] at 5, [C(1O2)] at 7, [A(5)] at 13, 5' {Fethoc}, 3' {NH2}; peptide nucleic acid written N to C) [SNAP-ASO 2]” are 87.6 °C and 76.0 °C.
On the same counts, the results for “Fethoc-A(6)TT-TG(5)T-TA(6)C-C(1O2)CT-G(5)G-NH2 (ATTTGTTACCCTGG; all peptide nucleic acid (PNA), [A(6)] at 1, 8, [G(5)] at 5, 13, [C(1O2)] at 10, 5' {Fethoc}, 3' {NH2}; peptide nucleic acid written N to C) [SNAP-ASO 12]” are 74.0 °C and 62.0 °C.
In the case of “Fethoc-A(6)GA-A(6)CT-CA(6)T-CC(1O2)T-A(6)CT-TA(6)-NH2 (antisense AGAACTCATCCTACTTA; all peptide nucleic acid (PNA), [A(6)] at 1, 4, 8, 13, 17, [C(1O2)] at 11, 5' {Fethoc}, 3' {NH2}; peptide nucleic acid written N to C) [HIF-ASO 11]”, the “Tm Value, 10-mer DNA against C-Terminal” value was found to be 61.0 °C and the “Tm Value, 10-mer DNA against N-Terminal” value was 73.4 °C.
“Fethoc-GA(5)A-C(1O2)TT-A(5)TC-CTA(5)-CT-NH2 (GAACTTATCCTACT; splice-switching; all peptide nucleic acid (PNA), [A(5)] at 2, 7, 12, [C(1O2)] at 4, 5' {Fethoc}, 3' {NH2}; peptide nucleic acid backbone) [HIF-ASO 4]”: the “Tm Value, 10-mer DNA against C-Terminal” value was 53.4 °C and the “Tm Value, 10-mer DNA against N-Terminal” value worked out at 66.0 °C.
On to “Fethoc-AAG(6)-TG(6)T-A(5)CC(1O2)-TA(5)A-A-NH2 (AAGTGTACCTAAA; splice-switching; all peptide nucleic acid (PNA), [G(6)] at 3, 5, [A(5)] at 7, 11, [C(1O2)] at 9, 5' {Fethoc}, 3' {NH2}; peptide nucleic acid written N to C) [SCN-ASO 25]”, for which the “Tm Value, 10-mer DNA against C-Terminal” value is 66.0 °C and the “Tm Value, 10-mer DNA against N-Terminal” value worked out at 78.0 °C.
“Fethoc-TA(5)C-CAG(6)-GC(1O2)A-A(5)GG(6)-C-NH2 (antisense TACCAGGCAAGGC; all peptide nucleic acid (PNA), [A(5)] at 2, 10, [G(6)] at 6, 12, [C(1O2)] at 8, 5' {Fethoc}, 3' {NH2}; peptide nucleic acid backbone) [AR-ASO 4]”: the “Tm Value, 10-mer DNA against C-Terminal” value is 84.5 °C and the “Tm Value, 10-mer DNA against N-Terminal” value was determined as 84.3 °C.
Turning to “Fethoc-A(6)TT-TG(G)T-TA(5)C-C(1O2)CT-G(5)-NH2 (antisense ATTTGTTACCCTG; all peptide nucleic acid (PNA), [A(6)] at 1, [G(G)] at 5, [A(5)] at 8, [C(1O2)] at 10, [G(5)] at 13, 5' {Fethoc}, 3' {NH2}; peptide nucleic acid written N to C) [SNAP-ASO 9]”, the “Tm Value, 10-mer DNA against C-Terminal” value was 76.0 °C and the “Tm Value, 10-mer DNA against N-Terminal” value is 62.0 °C.

(Values after patent US12624068B2, “Exon skipping by peptide nucleic acid derivatives” (OliPass Corporation, priority 2016, dated 2026).)
